From patent US12459951B2, “Compounds that interact with RAS superfamily proteins for treatment of cancers, inflammatory diseases, rasopathies, and fibrotic disease” (SHY Therapeutics, LLC, priority 2022, dated 2025)

Tested on: Erk1/2 phosphorylation
Experiment: Erk1/2 Phosphorylation Assay (western blot), Panc-1
Type: cell-based, human
Conditions: at 10 μM, * = activation
In short: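 KRas G12D Panc-1 cells were treated 6 h at 37° C with compound at 10 μM or serial dilutions for IC50 (0.3% DMSO). In method 1, cells were serum-starved overnight (0.5% FBS) and then given 1.5 ng/ml EGF for 15 min. In method 2, cells stayed in 10% FBS without stimulation. Lysate phospho-Erk1/2 (Thr202/Tyr204) was read by western blot.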

Row | Compound | % inh of Erk1/2 phosphorylation in Panc-1
1 | Cc1c(-c2ccn(C)n2)cn2nc(-c3nccn3C)nc(Nc3ccc(-c4ccccn4)cn3)c12 [Compound 249, N-([2,3′-Bipyridin]-6′-yl)-5-methyl-2-(1-methyl-1H-imidazol-2-yl)-6-(1-methyl-1H-pyrazol-3-yl)pyrrolo[2,1-f][1,2,4]triazin-4-amine] | D* (85-100% activation)
2 | Cc1c(-c2ccn(C)n2)cn2nc(-c3nccn3C)nc(Nc3cc(OC(F)F)n(C)n3)c12 [Compound 254, N-(5-(Difluoromethoxy)-1-methyl-1H-pyrazol-3-yl)-5-methyl-2-(1-methyl-1H-imidazol-2-yl)-6-(1-methyl-1H-pyrazol-3-yl)pyrrolo[2,1-f][1,2,4]triazin-4-amine] | D* (85-100% activation)
3 | COc1cccc(Nc2nc(-c3nccn3C)nn3ccc(-c4ccccc4)c23)n1 [Compound 40, N-(6-Methoxypyridin-2-yl)-2-(1-methyl-1H-imidazol-2-yl)-5-phenylpyrrolo[2,1-f][1,2,4]triazin-4-amine] | 0 (0% inhibition)
4 | COc1cc(Nc2nc(-c3nccn3C)nn3cc(-c4ccn(C)n4)c(C)c23)ncc1-n1cnc(C)c1 [Compound 244, N-(4-Methoxy-5-(4-methyl-1H-imidazol-1-yl)pyridin-2-yl)-5-methyl-2-(1-methyl-1H-imidazol-2-yl)-6-(1-methyl-1H-pyrazol-3-yl)pyrrolo[2,1-f][1,2,4]triazin-4-amine] | 0 (0% inhibition)
5 | CCOc1cc(Nc2nc(-c3nccn3C)nn3cc(-c4ccn(C)n4)c(C)c23)n[nH]1 [Compound 260, N-(5-Ethoxy-1H-pyrazol-3-yl)-5-methyl-2-(1-methyl-1H-imidazol-2-yl)-6-(1-methyl-1H-pyrazol-3-yl)pyrrolo[2,1-f][1,2,4]triazin-4-amine] | A* (1-25% activation)
6 | Cc1c(-c2ccn(C)n2)cn2nc(-c3nccn3C)nc(Nc3cc(-c4ccccn4)ccn3)c12 [Compound 248, N-([2,4′-Bipyridin]-2′-yl)-5-methyl-2-(1-methyl-1H-imidazol-2-yl)-6-(1-methyl-1H-pyrazol-3-yl)pyrrolo[2,1-f][1,2,4]triazin-4-amine] | C* (46-84% activation)
7 | Cc1c(-c2ccn(C)n2)cn2nc(-c3nccn3C)nc(Nc3cc(-n4ccnc4C)ccn3)c12 [Compound 246, 5-Methyl-N-(4-(2-methyl-1H-imidazol-1-yl)pyridin-2-yl)-2-(1-methyl-1H-imidazol-2-yl)-6-(1-methyl-1H-pyrazol-3-yl)pyrrolo[2,1-f][1,2,4]triazin-4-amine] | 0 (0% inhibition)
8 | Cc1c(-c2ccn(C)n2)cn2nc(-c3nccn3C)nc(Nc3cc(-c4cccnc4)ccn3)c12 [Compound 250, N-([3,4′-Bipyridin]-2′-yl)-5-methyl-2-(1-methyl-1H-imidazol-2-yl)-6-(1-methyl-1H-pyrazol-3-yl)pyrrolo[2,1-f][1,2,4]triazin-4-amine] | C* (46-84% activation)
9 | COc1cccc(Nc2nc(-c3nccn3C)nn3ccc(C)c23)n1 [Compound 38, N-(6-Methoxypyridin-2-yl)-5-methyl-2-(1-methyl-1H-imidazol-2-yl)pyrrolo[2,1-f][1,2,4]triazin-4-amine] | 0 (0% inhibition)
10 | CO[C@H]1C[C@H](Nc2nc(-c3nccn3C)nn3cc(-c4ccn(C)n4)c(C4CC4)c23)C1 [Compound 275, 5-Cyclopropyl-N-((1r,3r)-3-methoxycyclobutyl)-2-(1-methyl-1H-imidazol-2-yl)-6-(1-methyl-1H-pyrazol-3-yl)pyrrolo[2,1-f][1,2,4]triazin-4-amine] | 0 (0% inhibition)
11 | COc1cc(Nc2nc(-c3nccn3C)nn3cc(-c4ccn(C)n4)c(C)c23)n[nH]1 [Compound 252, N-(5-Methoxy-1H-pyrazol-3-yl)-5-methyl-2-(1-methyl-1H-imidazol-2-yl)-6-(1-methyl-1H-pyrazol-3-yl)pyrrolo[2,1-f][1,2,4]triazin-4-amine] | A* (1-25% activation)
12 | COc1cccc(-c2cn3nc(-c4nccn4C)nc(N[C@H]4C[C@@H](OC)C4)c3c2-c2ccccc2)c1C [Compound 269, 6-(3-Methoxy-2-methylphenyl)-N-((1s,3s)-3-methoxycyclobutyl)-2-(1-methyl-1H-imidazol-2-yl)-5-phenylpyrrolo[2,1-f][1,2,4]triazin-4-amine] | D (85-100% inhibition)
13 | Cc1c(-c2ccn(C)n2)cn2nc(-c3nccn3C)nc(Nc3cc(-c4ccccc4)[nH]n3)c12 [Compound 263, 5-Methyl-2-(1-methyl-1H-imidazol-2-yl)-6-(1-methyl-1H-pyrazol-3-yl)-N-(5-phenyl-1H-pyrazol-3-yl)pyrrolo[2,1-f][1,2,4]triazin-4-amine] | A (1-25% inhibition)
14 | Cc1c(-c2ccn(C)n2)cn2nc(-c3nccn3C)nc(Nc3cc(-c4cccnc4)[nH]n3)c12 [Compound 264, 5-Methyl-2-(1-methyl-1H-imidazol-2-yl)-6-(1-methyl-1H-pyrazol-3-yl)-N-(5-(pyridin-3-yl)-1H-pyrazol-3-yl)pyrrolo[2,1-f][1,2,4]triazin-4-amine] | B* (26-49% activation)
15 | COc1cc(Nc2nc(-c3nccn3C)nn3cc(-c4ccn(C)n4)c(C)c23)nn1C [Compound 253, N-(5-Methoxy-1-methyl-1H-pyrazol-3-yl)-5-methyl-2-(1-methyl-1H-imidazol-2-yl)-6-(1-methyl-1H-pyrazol-3-yl)pyrrolo[2,1-f][1,2,4]triazin-4-amine] | C* (46-84% activation)
16 | Cc1c(-c2ccn(C)n2)cn2nc(-c3nccn3C)nc(Nc3cc(-n4ccnc4)ccn3)c12 [Compound 245, N-(4-(1H-imidazol-1-yl)pyridin-2-yl)-5-methyl-2-(1-methyl-1H-imidazol-2-yl)-6-(1-methyl-1H-pyrazol-3-yl)pyrrolo[2,1-f][1,2,4]triazin-4-amine] | 0 (0% inhibition)
17 | Cc1c(-c2ccn(C)n2)cn2nc(-c3nccn3C)nc(Nc3cc[nH]n3)c12 [Compound 256, 5-Methyl-2-(1-methyl-1H-imidazol-2-yl)-6-(1-methyl-1H-pyrazol-3-yl)-N-(1H-pyrazol-3-yl)pyrrolo[2,1-f][1,2,4]triazin-4-amine] | C (50-84% inhibition)
18 | Cc1c(-c2ccn(C)n2)cn2nc(-c3nccn3C)nc(Nc3cc(-c4ccncc4)[nH]n3)c12 [Compound 266, 5-Methyl-2-(1-methyl-1H-imidazol-2-yl)-6-(1-methyl-1H-pyrazol-3-yl)-N-(5-(pyridin-4-yl)-1H-pyrazol-3-yl)pyrrolo[2,1-f][1,2,4]triazin-4-amine] | D (85-100% inhibition)
19 | Cc1cc(Nc2nc(-c3nccn3C)nn3cc(-c4ccn(C)n4)c(C)c23)n[nH]1 [Compound 255, 5-Methyl-2-(1-methyl-1H-imidazol-2-yl)-6-(1-methyl-1H-pyrazol-3-yl)-N-(5-methyl-1H-pyrazol-3-yl)pyrrolo[2,1-f][1,2,4]triazin-4-amine] | A (1-25% inhibition)
20 | Cc1c(-c2ccn(C)n2)cn2nc(-c3nccn3C)nc(Nc3ccc(N4CCOCC4)cn3)c12 [Compound 247, 5-Methyl-2-(1-methyl-1H-imidazol-2-yl)-6-(1-methyl-1H-pyrazol-3-yl)-N-(5-morpholinopyridin-2-yl)pyrrolo[2,1-f][1,2,4]triazin-4-amine] | D* (85-100% activation)
21 | Cc1c(-c2ccn(C)n2)cn2nc(-c3nccn3C)nc(Nc3cc(C(C)C)[nH]n3)c12 [Compound 268, N-(5-Isopropyl-1H-pyrazol-3-yl)-5-methyl-2-(1-methyl-1H-imidazol-2-yl)-6-(1-methyl-1H-pyrazol-3-yl)pyrrolo[2,1-f][1,2,4]triazin-4-amine] | D* (85-100% activation)
22 | Cc1c(-c2ccn(C)n2)cn2nc(-c3nccn3C)nc(Oc3cc(N)[nH]n3)c12 [Compound 262, 3-((5-Methyl-2-(1-methyl-1H-imidazol-2-yl)-6-(1-methyl-1H-pyrazol-3-yl)pyrrolo[2,1-f][1,2,4]triazin-4-yl)oxy)-1H-pyrazol-5-amine] | A (1-25% inhibition)
23 | Cc1c(-c2ccn(C)n2)cn2nc(-c3nccn3C)nc(Nc3cc(C4CCC4)[nH]n3)c12 [Compound 257, N-(5-Cyclobutyl-1H-pyrazol-3-yl)-5-methyl-2-(1-methyl-1H-imidazol-2-yl)-6-(1-methyl-1H-pyrazol-3-yl)pyrrolo[2,1-f][1,2,4]triazin-4-amine] | C* (46-84% activation)
24 | Cn1ccnc1-c1nc(OCCN2CCCC2)c2c(-c3ccccc3)ccn2n1 [Compound 41, 2-(1-Methyl-1H-imidazol-2-yl)-5-phenyl-4-(2-(pyrrolidin-1-yl)ethoxy)pyrrolo[2,1-f][1,2,4]triazine] | 0 (0% inhibition)
25 | COc1cccc(-c2cn3nc(-c4nccn4C)nc(N[C@H]4C[C@H](OC)C4)c3c2-c2ccccn2)c1C [Compound 274, 6-(3-Methoxy-2-methylphenyl)-N-((1r,3r)-3-methoxycyclobutyl)-2-(1-methyl-1H-imidazol-2-yl)-5-(pyridin-2-yl)pyrrolo[2,1-f][1,2,4]triazin-4-amine] | D (85-100% inhibition)
26 | Cc1c(-c2ccn(C)n2)cn2nc(-c3nccn3C)nc(Nc3cc(-c4ccccn4)[nH]n3)c12 [Compound 265, 5-Methyl-2-(1-methyl-1H-imidazol-2-yl)-6-(1-methyl-1H-pyrazol-3-yl)-N-(5-(pyridin-2-yl)-1H-pyrazol-3-yl)pyrrolo[2,1-f][1,2,4]triazin-4-amine] | A* (1-25% activation)
27 | Cc1[nH]nc(Nc2nc(-c3nccn3C)nn3cc(-c4ccn(C)n4)c(C)c23)c1C [Compound 267, N-(4,5-Dimethyl-1H-pyrazol-3-yl)-5-methyl-2-(1-methyl-1H-imidazol-2-yl)-6-(1-methyl-1H-pyrazol-3-yl)pyrrolo[2,1-f][1,2,4]triazin-4-amine] | D* (85-100% activation)
